Data: patent US20070249590A1, “Substituted indolo[2,3-a]pyrrolo[3,4-c]carbazole compounds useful in treating kinase disorders” (priority 2005, published 2007)
pIC50: −log10 of the molar value.

target: T1, JAK3 (JH1 and JH2 domain) (Homo sapiens, UniProt P52333); test: JAK3 Kinase Assay (ELISA of peptide substrate phosphorylation); format: biochemical; details: purified JAK3 enzyme, 10 μM ATP, biotinylated peptide substrate, 1 hour at room temperature
T1 sequence (P52333 521-1111 limits assumed): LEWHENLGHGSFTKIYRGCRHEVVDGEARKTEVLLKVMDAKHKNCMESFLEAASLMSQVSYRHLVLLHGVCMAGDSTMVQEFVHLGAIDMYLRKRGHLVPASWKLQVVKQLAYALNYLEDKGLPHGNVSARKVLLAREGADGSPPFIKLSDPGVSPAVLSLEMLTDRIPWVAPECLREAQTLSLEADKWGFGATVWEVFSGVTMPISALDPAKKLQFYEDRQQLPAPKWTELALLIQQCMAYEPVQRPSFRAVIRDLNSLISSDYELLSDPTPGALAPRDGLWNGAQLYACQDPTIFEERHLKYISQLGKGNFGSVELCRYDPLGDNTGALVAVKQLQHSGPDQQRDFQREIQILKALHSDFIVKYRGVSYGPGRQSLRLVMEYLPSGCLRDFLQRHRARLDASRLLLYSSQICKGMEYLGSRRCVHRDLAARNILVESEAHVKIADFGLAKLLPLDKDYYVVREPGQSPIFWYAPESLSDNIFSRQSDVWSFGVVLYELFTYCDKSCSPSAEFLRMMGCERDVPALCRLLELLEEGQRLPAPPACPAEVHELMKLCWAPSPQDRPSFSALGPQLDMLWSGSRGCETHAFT
Protocol: JAK3 enzyme activity was assayed relative to enzyme phosphorylation using the method described herein.
Sf21 cells derived from the ovarian tissue of the fall armyworm Spodotera frugiperda were obtained from Pharmingen (San Diego, Calif.) and maintained at a temperature of about 26-28° C. in 1 l Bellco spinner flasks at 60-90 rpm. Cell viability was maintained at 95-100%, as determined by a tryptan blue dye exclusion test.
Sf21 cells were infected with a baculovirus expression vector for JAK3 (JH1 and JH2 domain). After 48 hours of infection, cells were harvested and lysed in Tris-saline (pH 7.6) containing 2% NP-40 and a combination of protease inhibitors (Aprotinin, Pepstatin A, Pefabloc, E-64, Leupeptin, and Benzamidine) on ice for 45 minutes.
The JAK3 enzyme was purified from the lysate using glutathione sepharose beads and the enzyme activity was assessed in Costar flat bottom EIA/RIA 96 well plates. The plates were coated with Neutravidin (110 μL) (Pierce Neutravidin Biotin-binding Protein 31000; 1 mg/mL 1:100) diluted in PBS for 1 hour at room temperature. The plates were washed with PBS-0.1% Tween (3 times) to remove unbound Neutravidin, then 1% BSA (150 NIL) in PBS was added to each well to block non-specific binding. The plates was incubated for 1 hour at room temperature and stored at −80° C. until use.
JAK3 enzyme solution (48 μL) in 1.25×TK buffer (62.5 mM HEPES pH 7.5, 12.5 mM MgCl2) containing DTT (42 mM) (Sigma, St. Louis, Mo.) was added to each well of a polypropylene 96 well plate.
A test compound (5 μL) diluted in DMSO (48 μL) and biotinylated peptide enzyme substrate (5 μg diluted in TK buffer containing 10 μM ATP) were added to each well using the double dispense feature of a multichannel electronic biohit. Control wells received DMSO vehicle (5 μL). The contents of the wells were mixed for approximately 8 seconds using a multitube vortexer and the reaction mixture was incubated for 1 hour at room temperature.
After incubation, an aliquot of reaction mixture (90 μL) was transferred into a washed Neutravidin coated plate. The plate was incubated for 15 minutes at room temperature and washed 3 times with PBS-T. PY99 anti-phosphotyrosine antibody (100 μL/well) (Santa Cruz #sc-7020HRP diluted 1:6000 in 1× antibody buffer) was added into each well and the plate was incubated for 40 minutes at room temperature. The antibody buffer contained 10% BSA, 100 mM Tris (pH 7.5), 1M NaCl and 1% Tween 20. The plate washed 3 times with PBS-T, then TMB (100 pLXSigma, St. Louis, Mo.) was added to the each well. The plate was incubated for another 40 mins at room temperature in the dark. The reaction was stopped by the addition of 1M H2SO4 (50 μL/well) and the optical density was read at 450/650 nm.
Test compounds were assayed in triplicate at 16 concentrations at half-log dilutions starting at 200 μM. A maximum and minimum signal for the assay was determined on each plate. The percent inhibition of a test compound was calculated according to the formula [formula]
For a series of test concentrations, the IC50 was derived by graphing percent inhibition against the log of the concentrations tested for a given compound. For those compounds without an IC50, the percent inhibition results are shown at a test concentration of 1 μM.

| pIC50 | SMILES |
| --- | --- |
| 6.50 | O=C1NC(=O)c2c1c1c3ccccc3n3c1c1c2c2ccccc2n1CC(OC(=O)N1CCN(c2ccncc2)CC1)CC3 (centres unmarked) [Cpd 55, 12,13-{2-[(4-pyridin-4-yl-piperazin-1-yl)carbonyloxy]-butan-1,4-yl}-12,13-dihydro-5,7-dioxo-6H-indolo[2,3-a]pyrrolo[3,4-c]carbazole] |
| 6.45 | COCCNCc1ccc2c(c1)c1c3c(c4c5ccccc5n5c4c1n2CC(O)C(O)C5)CNC3=O (centres unmarked) [Cpd 198, 3-[(2-methoxy-ethyl)aminomethyl]-12,13-(2,3-dihydroxy-butan-1,4-yl)-6,7,12,13-tetrahydro-5-oxo-5H-indolo[2,3-a]pyrrolo[3,4-c]carbazole] |
| 6.78 | COc1ccccc1CNC(=O)OCC1(O)Cn2c3ccccc3c3c4c(c5c6ccccc6n(c5c32)C1)C(=O)NC4 (centres unmarked) [Cpd 174, 12,13-{2-hydroxy-2-[(2-methoxy-benzyl)carbamoyloxymethyl]-propan-1,3-yl}-6,7,12,13-tetrahydro-5-oxo-5H-indolo[2,3-a]pyrrolo[3,4-c]carbazole] |
| 7.28 | COCCNC(=O)C1(O)Cn2c3ccccc3c3c4c(c5c6ccccc6n(c5c32)CC1O)C(=O)NC4=O (centres unmarked) [Cpd 124, 12,13-{2-[(2-methoxy-ethyl)carbamoyl]-2,3-dihydroxy-butan-1,4-yl}-12,13-dihydro-5,7-dioxo-6H-indolo[2,3-a]pyrrolo[3,4-c]carbazole] |
| < 6.70 | O=C1NCc2c1c1c3ccccc3n3c1c1c2c2ccccc2n1CC(O)(COC(=O)N1CCN(C2CCCCC2)CC1)C3 (centres unmarked) [Cpd 142, 12,13-{2-hydroxy-2-[(4-cyclohexyl-piperazin-1-yl)carbonyloxymethyl]-propan-1,3-yl}-6,7,12,13-tetrahydro-5-oxo-5H-indolo[2,3-a]pyrrolo[3,4-c]carbazole] |
| 7.77 | O=C1NC(=O)c2c1c1c3ccccc3n3c1c1c2c2ccccc2n1CC(O)(C(=O)NCCCN1CCOCC1)C(O)C3 (centres unmarked) [Cpd 120, 12,13-{2-[(3-morpholin-4-yl-prop-1-yl)carbamoyl]-2,3-dihydroxy-butan-1,4-yl}-12,13-dihydro-5,7-dioxo-6H-indolo[2,3-a]pyrrolo[3,4-c]carbazole] |
| 6.74 | CN(C)CCN(C)C(=O)OC1Cn2c3ccccc3c3c4c(c5c6ccccc6n(c5c32)CC1O)C(=O)NC4=O (centres unmarked) [Cpd 107, 12,13-(2-{[N-methyl-N-(2-dimethylamino-ethyl)]carbamoyloxy}-3-hydroxy-butan-1,4-yl)-12,13-dihydro-5,7-dioxo-6H-indolo[2,3-a]pyrrolo[3,4-c]carbazole] |
| 6.99 | O=C1NCc2c1c1c3cc(Cn4ccnc4)ccc3n3c1c1c2c2ccccc2n1CC(O)C(O)C3 (centres unmarked) [Cpd 202, 3-(imidazol-1-ylmethyl)-12,13-(2,3-dihydroxy-butan-1,4-yl)-6,7,12,13-tetrahydro-5-oxo-5H-indolo[2,3-a]pyrrolo[3,4-c]carbazole] |
| 8.52 | O=C1NCc2c1c1c3ccccc3n3c1c1c2c2cc(CO)ccc2n1CC(CO)C3 (centres unmarked) [Cpd 212, 9-hydroxymethyl-12,13-(2-hydroxymethyl-propan-1,3-yl)-6,7,12,13-tetrahydro-5-oxo-5H-indolo[2,3-a]pyrrolo[3,4-c]carbazole] |
| < 6.40 | CN1CCN(C(=O)OC2CCn3c4ccccc4c4c5c(c6c7ccccc7n(c6c43)C2)C(=O)NC5=O)CC1 (centres unmarked) [Cpd 51, 12,13-{2-[(4-methyl-piperazin-1-yl)carbonyloxy]-butan-1,4-yl}-12,13-dihydro-5,7-dioxo-6H-indolo[2,3-a]pyrrolo[3,4-c]carbazole] |
| 7.10 | CC(C)NC(=O)C1(O)Cn2c3ccccc3c3c4c(c5c6ccccc6n(c5c32)CC1O)C(=O)NC4=O (centres unmarked) [Cpd 123, 12,13-[2-(isopropyl-carbamoyl)-2,3-dihydroxy-butan-1,4-yl]-12,13-dihydro-5,7-dioxo-6H-indolo[2,3-a]pyrrolo[3,4-c]carbazole] |
| 7.72 | O=C1NCc2c1c1c3cc(/C=N/NC4=NCCN4)ccc3n3c1c1c2c2ccccc2n1CC(O)C(O)C3 (centres unmarked) [Cpd 200, 3-[(4,5-dihydro-1H-imidazol-2-yl)hydrazomethylene]-12,13-(2,3-dihydroxy-butan-1,4-yl)-6,7,12,13-tetrahydro-5-oxo-5H-indolo[2,3-a]pyrrolo[3,4-c]carbazole] |
| 8.15 | Nc1ccc2c(c1)c1c3c(c4c5ccccc5n5c4c1n2CC(O)C(O)C5)CNC3=O (centres unmarked) [Cpd 192, 3-amino-12,13-(2,3-dihydroxy-butan-1,4-yl)-6,7,12,13-tetrahydro-5-oxo-5H-indolo[2,3-a]pyrrolo[3,4-c]carbazole] |
| 5.97 | O=C1NC(=O)c2c1c1c3ccccc3n3c1c1c2c2ccccc2n1CC(OC(=O)N1CCN(c2ccccn2)CC1)C(O)C3 (centres unmarked) [Cpd 112, 12,13-{2-[(4-pyridin-2-yl-piperazin-1-yl)carbonyloxy]-3-hydroxy-butan-1,4-yl}-12,13-dihydro-5,7-dioxo-6H-indolo[2,3-a]pyrrolo[3,4-c]carbazole] |
| 5.78 | COC[C@H](C)NC(=O)OC1CCn2c3ccccc3c3c4c(c5c6ccccc6n(c5c32)CC1)C(=O)NC4 (stereo partly drawn) [Cpd 182, 12,13-[3-({2-[(1S)-2-methoxy-1-methyl]ethyl}carbamoyloxy)-pentan-1,5-yl]-6,7,12,13-tetrahydro-5-oxo-5H-indolo[2,3-a]pyrrolo[3,4-c]carbazole] |
| 6.42 | O=C1NCc2c1c1c3ccccc3n3c1c1c2c2ccccc2n1CC(COC(=O)N1CCN(CCO)CC1)C3 (centres unmarked) [Cpd 164, 12,13-(2-{[4-(2-hydroxy-ethyl)piperazin-1-yl]carbonyloxymethyl}-propan-1,3-yl)-6,7,12,13-tetrahydro-5-oxo-5H-indolo[2,3-a]pyrrolo[3,4-c]carbazole] |
| 7.17 | O=C1NC(=O)c2c1c1c3ccccc3n3c1c1c2c2ccccc2n1CC(O)(C(=O)N1CCN(c2ccc(O)cc2)CC1)C(O)C3 (centres unmarked) [Cpd 129, 12,13-(2-{[4-(4-hydroxy-phenyl)piperazin-1-yl]carbonyl}-2,3-dihydroxy-butan-1,4-yl)-12,13-dihydro-5,7-dioxo-6H-indolo[2,3-a]pyrrolo[3,4-c]carbazole] |
| 6.16 | O=C(O)/C=C/c1ccc2c(c1)c1c3c(c4c5ccccc5n5c4c1n2CC(CO)C5)CNC3=O (centres unmarked) [Cpd 218, 3-[(2E)-2-carboxy-ethenyl]-12,13-(2-hydroxymethyl-propan-1,3-yl)-6,7,12,13-tetrahydro-5-oxo-5H-indolo[2,3-a]pyrrolo[3,4-c]carbazole] |
| 6.69 | O=C1NCc2c1c1c3ccccc3n3c1c1c2c2ccccc2n1CC(COC(=O)N1CCN(C(=O)OCc2ccccc2)CC1)C3 (centres unmarked) [Cpd 167, 12,13-(2-{[4-(benzyloxycarbonyl)piperazin-1-yl]carbonyloxymethyl}-propan-1,3-yl)-6,7,12,13-tetrahydro-5-oxo-5H-indolo[2,3-a]pyrrolo[3,4-c]carbazole] |

| SMILES | pIC50 |
| --- | --- |
| CC(C)(C)OC(=O)NC1CCN(C(=O)OCC2Cn3c4ccccc4c4c5c(c6c7ccccc7n(c6c43)C2)C(=O)NC5)CC1 (centres unmarked) [Cpd 172, 12,13-(2-{[4-(t-butoxycarbonylamino)piperidin-1-yl]carbonyloxymethyl}-propan-1,3-yl)-6,7,12,13-tetrahydro-5-oxo-5H-indolo[2,3-a]pyrrolo[3,4-c]carbazole] | 6.92 |
